Patent US9604974B2, “Compounds as modulator of JAK-STAT pathway, methods and applications thereof” (UNIVERSITY OF MYSORE, priority 2015, dated 2017)

Assays:
STAT3 = STAT3 DNA binding TransAM ELISA on nuclear extracts; format: cell-based, human; details: HepG2 nuclear extracts, 10 μMol/L CIMO
Procedure: It is further investigated whether CIMO modulates STAT3 DNA binding activity in HepG2 cells, since it is known that STAT3 dimer translocates into the nucleus and binds to specific DNA nucleotide sequence to regulate gene expression. DNA binding assay is performed using a STAT3 DNA binding TransAM™ ELISA kit (Active Motif, Carlsbad, Calif., USA). Briefly, nuclear extracts (5 μg) from CIMO-treated cells are incubated in a 96-well plate coated with oligonucleotide containing the STAT3-specific DNA probe. Bound STAT3 is then detected by a specific primary antibody. An HRP-conjugated secondary antibody is subsequently applied to detect the bound primary antibody and provided the basis for colorimetric quantification. The enzymatic product is measured at 450 nm with a microplate reader (Tecan Systems, San Jose, Calif., USA). Specificity of this assay is tested by the addition of wild-type or mutated STAT3 consensus oligonucleotide in the competitive or mutated competitive control wells before the addition of the nuclear extracts.

SHP-1, SHPTP-2, PTP1B = test: Western blot of tyrosine phosphatase expression; format: cell-based, human; details: HepG2, CIMO up to 4 hours
PLC/PRF5 = test: MTT anti-proliferative assay, PLC/PRF5; format: cell-based; details: Homo sapiens, PLC-PRF-5
Procedure: The anti-proliferative activity of Formula I compounds are studied on HepG2 cells using MTT assay. Briefly, the cells (2.5×10^4/ml) are incubated in triplicate in a 96-well plate in the presence or absence of different concentrations of compounds in a final volume of 0.2 ml up to 72 hours at 37° C. Thereafter, 20 μl MTT solution (5 mg/ml in PBS) is added to each well. After 2 hours of incubation at 37° C., 0.1 ml lysis buffer (20% SDS, 50% dimethyl-formamide) is added; incubation is continued overnight at 37° C.; and the optical density (OD) at 570 nm is measured by Tecan plate reader.
Additionally, Compound 1 is tested on a panel of six cell lines including Hep3B, PLC/PRF5, AGS (gastric cancer cell line), DU145 (prostrate cancer cell line), MDA MB231 (breast cancer cell line) and CAL27 (head and neck cancer cell line) cells.

[1] = system: Bcl-2, Bcl-xL, Survivin, ICAM-1, Bid, Cyclin D1, Bak; test: Western blot of STAT3-regulated gene products; format: cell-based, human; details: HepG2, 10 μMol/L CIMO
Procedure: (§1) FIG. 3 depicts comparative study of cell viability between STAT3-siRNA transfected and Compound 1 (CIMO) treated HepG2 cells [A]. Correspondingly, Western Blot analysis is used to assess the levels of phospho-STAT3 and STAT3 in HepG2 cells with siRNA-mediated depletion STAT3 expression and on exposure to 4 μM CIMO. Whole cell extract is prepared and resolved on SDS-PAGE gel, electrotransferred onto nitrocellulose membrane, and probed for phospho-STAT3 and the same blot is stripped and reprobed with STAT3 antibody and Beta actin to verify equal protein loading. [B] showcases the modulation of STAT3 mediated transcription, α2-M promoter activity by Compound 1 (CIMO) in HepG2 cells. [C] depicts the inhibition of IL-6-induced phosphorylation of STAT3, JAK1 and JAK2 by Compound 1 (CIMO). Hep3B cells (5×10^5/mL) are treated with 10 μMol/L CIMO for the indicated times and then stimulated with IL-6 (10 ng/mL) for about 15 minutes. Whole-cell extracts are then prepared, resolved on SDS-PAGE gel, electrotransferred onto nitrocellulose membrane and probed with phospho-STAT3, phospho-JAK1 and phospho-JAK2 antibodies. The same blot is stripped and reprobed with STAT3, JAK1 and JAK2 antibody to verify equal protein loading. [D] and [E], showcases the suppression of STAT3 regulated gene products involved in cell proliferation and survival by Compound 1 (CIMO). […]
To detect STAT3-regulated proteins and PARP, cells (2×10^6/ml) are treated with CIMO for the indicated times as shown in respective FIGS. 3E, 3D and 4A. […] Whole-cell extract protein (30 μg) is resolved on SDS-PAGE, electrotransferred onto a nitrocellulose membrane, blotted with antibodies against survivin, Bcl-2, Bcl-xL, cyclin D1, Bak, Bid, ICAM-1, procaspase-3, and PARP and then detected by chemiluminescence (ECL; GE Healthcare, Little Chalfont, Buckinghamshire, UK).

JAK1 = test: IL-6 induced JAK1 phosphorylation in Hep3B; format: cell-based; details: 10 μMol/L CIMO, IL-6 10 ng/mL
Procedure: as §1

COc1ccc(C2CNC(c3cn(Cc4ccc(-c5ccccc5C#N)cc4)c4ccccc34)OC23CCCCC3)cc1 (stereo not shown) [Compound 1]
binding of STAT3 to the DNA (STAT3): suppresses the binding of STAT3 to the DNA in a time-dependent manner | levels of SHP-1, SHPTP-2, PTP1B (SHP-1, SHPTP-2, PTP1B): no change | IC50 (PLC/PRF5): 38.8 µM | expression of Bcl-2, Bcl-xL, Survivin, ICAM-1, Bid and Cyclin D1 [1]: Down-regulation | time of maximum activity on Bak expression [1]: 36 h | expression of pro-apoptotic protein Bak ([1]; time-dependent): upregulation | IL-6 induced phosphorylation of JAK1 (JAK1): substantially down-regulates
